# Assay results reported in article PMC6905855, “Agonist-specific voltage-dependent gating of lysosomal two-pore Na^+ channels” (eLife, 2019).
# Values joined by “and” are separate entries in the source; they are usually repeats but may differ in a detail not shown here. Equal entries are not always repeated. “Also recorded” adds a separate entry of the source.
# Experiments:
# [1] = tested on: endogenous TPCs in WT HAP1 cells; assay: Whole-endolysosome recordings of endogenous ITPC in WT HAP1 cells; format: biochemical, human; conditions: for whole-endolysome ITPC current: wt HAP1, LyNa-VA1.1 (50 µM) co-applied with PI(3,5)P2 (0.3 µM)
# [2] = molecular target: T1, PI(3,5)P2-insensitive mutant TPC2 channel (K204A) (Homo sapiens, UniProt Q8NHX9, K204A); assay: Whole-endolysosome recordings of ITPC2-K204A; format: biochemical; conditions: for Normalized I-TPC2: TPC2-K204A
# T1 construct: expressed in transfected cells; host or cells: HEK293
# From the text: PI(3,5)P2 reportedly binds to Lys204 and adjacent AA residues to activate TPC2 ([She et al., 2019]). […] Lysosomal PI(3,5)P2 may play a permissive role in TPC activation in intact cells ([Ruas et al., 2015]).
# (§1) Data are presented as Mean ± S.E.M (n = 3 patches). […] For panels B, D and F, individual data and Mean ± S.E.M are presented. *, p<0.05; **, p<0.01; ***, p<0.001; N.S., no significance. Figure 3—source data 1. […] Figure 3—figure supplement 1. […] Both individual data points and Mean ± S.E.M are presented (n ≥ 3 patches; also see individual data in Figure 3—figure supplement 1—source data 1). Figure 3—figure supplement 1—source data 1.
# All TPC1 and TPC2 mutants were generated with a site-directed mutagenesis kit (Qiagen) using EGFP- human TPC1 and TPC2 as the templates. All constructs were confirmed by DNA sequencing.
# (§2) Whole-endolysosome recordings were performed on manually isolated enlarged endolysosomes ([Wang et al., 2012]). In brief, a patch pipette was pressed against a cell and quickly pulled away to slice the cell membrane. Enlarged endolysosomes were released into a dish and identified by monitoring EGFP-TPC1/2 or the mCherry-TPC1/2 fluorescence. After formation of a gigaseal between the patch pipette and the enlarged endolysosome, capacitance transients were compensated. Voltage steps of several hundred mVs with millisecond duration were then applied to break into the vacuolar membrane. The whole-endolysosome configuration was verified by the re-appearance of capacitance transients after break-in.
# (§3) Data were collected using an Axopatch 200A patch clamp amplifier, Digidata 1440, and pClamp 10.2 software (Axon Instruments). Whole-endolysosome currents were digitized at 10 kHz and filtered at 2 kHz. All experiments were conducted at room temperature (21–23°C), and all recordings were analyzed with pClamp 10.2, and Origin 8.0 (OriginLab, Northampton, MA). The permeability to cations (relative to PNa) was estimated based on following equations ([Lewis, 1979]) and Erev measurement under bi-ionic conditions:(1) PX/PNa=γNa/γX{[Na^+]Luminal/[X^+]Cytoplasmic}{exp([…])} (2) PCa/PNa=γNa/γCa{[Na^+]Cytoplasmic/[4[Ca^2+]Luminal}{exp(ErevF/RT)}{1+exp(ErevF/RT)} where R, T, F, Erev, and γ are, respectively, the gas constant, absolute temperature, Faraday constant, reversal potential, and activity coefficient. The liquid junction potentials were measured and corrected as described ([Neher, 1992]).
# [3] = tested on: TPC1/2 DKO HAP1 cells; assay: Whole-endolysosome recordings in TPC1/2 DKO HAP1 cells; format: biochemical, human; conditions: for whole-endolysome ITPC current: dko HAP1, LyNa-VA1.1 (50 µM) co-applied with PI(3,5)P2 (0.3 µM)
# From the text: TCAs, with a general structure of an aromatic greasy core and an aliphatic chain containing a terminal amine, are lysosomotropic compounds that are known to be highly accumulating in the lysosomes due to proton trapping ([Beckmann et al., 2014]). We next tested the effects of LyNa-VAs in hTPC2-transfected Cos1 and HEK293 cells using whole-endolyosome patch-clamp.
# as §1
# TPC1 and TPC2 CRISPR KO cells were generated in HAP1 cells using the CRISPR/Cas9 system. The TPC1 sequence (5'cttgcagtacttcagcaccc3', TPC1-sgRNA) and TPC2 sequence (5'ccccagcgtcgggctgctgc3', TPC2-sgRNA) were targeted with pSpCas9 (BB)−2A-puro vector (Addgene). HAP1 cells were co-transfected with TPC1 and TPC2-sgRNA expressing vector in the presence of Lipofectamine 2000 (In vitrogen) and selected with 2 μg/ml puromycin for 48 hr. The remaining cells were trypsinized and seeded into 96-well plate after a limiting dilution. When single cell clones were established, their genomic DNAs were extracted and amplified with following primers: TPC1-fw: 5’atggcccagacatgtgactc3’, TPC1-re: 5’ tgcctgtctccatcctctca3’; TPC2-fw: 5’tgagctgagcatgaggcaag3’, TPC2-re: 5’ aaaggacaagtggccctgag3’. The PCR amplicons were then sequenced to confirm the intended genetic disruption.
# as §2
# as §3, with “coefficient.” for “coefficient. The liquid junction potentials were measured and corrected as described ([Neher, 1992]).”
# [4] = tested on: T2, TPC2^K204A in HEK293 cells; assay: Whole-cell recordings of ITPC2-K204A; format: cell-based, human; conditions: TPC2^K204A-transfected HEK293 cells
# T2 construct: expressed in transfected cells; host or cells: HEK293
# [5] = tested on: T3, TPC2^LL/AA; assay: Inside-out patch recordings of ITPC2; format: biochemical, human; conditions: for time course of LyNa-VA1.2-induced ITPC2: I/o
# T3 construct: expressed in transfected cells; host or cells: HEK293
# [6] = inside out, 200 µM, individual recordings
# [7] = inside-out, 200 µM, mean ± S.E.M
# T1 sequence (Q8NHX9 whole entry K204A): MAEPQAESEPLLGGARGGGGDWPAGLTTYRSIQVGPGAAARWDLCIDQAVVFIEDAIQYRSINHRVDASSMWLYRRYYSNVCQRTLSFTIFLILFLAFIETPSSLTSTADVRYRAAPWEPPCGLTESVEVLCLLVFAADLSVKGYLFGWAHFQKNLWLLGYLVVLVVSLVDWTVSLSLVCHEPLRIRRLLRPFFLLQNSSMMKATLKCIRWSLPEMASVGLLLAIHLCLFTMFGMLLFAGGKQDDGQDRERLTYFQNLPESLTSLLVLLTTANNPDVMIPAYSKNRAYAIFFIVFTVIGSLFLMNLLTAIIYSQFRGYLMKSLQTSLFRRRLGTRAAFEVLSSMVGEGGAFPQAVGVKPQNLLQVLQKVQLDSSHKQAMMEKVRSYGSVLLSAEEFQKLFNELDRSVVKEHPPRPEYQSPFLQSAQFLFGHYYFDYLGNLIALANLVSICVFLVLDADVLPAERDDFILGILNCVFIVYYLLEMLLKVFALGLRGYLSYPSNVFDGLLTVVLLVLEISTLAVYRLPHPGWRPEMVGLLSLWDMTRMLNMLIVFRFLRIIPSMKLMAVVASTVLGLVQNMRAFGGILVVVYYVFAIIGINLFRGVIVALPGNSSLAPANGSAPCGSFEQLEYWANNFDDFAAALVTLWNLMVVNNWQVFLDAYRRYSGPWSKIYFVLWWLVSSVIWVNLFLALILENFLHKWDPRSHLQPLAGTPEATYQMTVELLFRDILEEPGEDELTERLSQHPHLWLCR
structure (smiles),measurement,setting,value
"Nc1nc2ccc(OC(F)(F)F)cc2s1 [LyNA1, Riluzole]",activation of whole-endolysosome ITPC in WT HAP1 cells (in words),[1],activated whole-endolysosome ITPC in WT HAP1 cells
same,activation of whole-endolysosome ITPC2-K204A (in words),[2],robustly activated whole-endolysosome ITPC2
same,activation of whole-endolysosome ITPC in TPC1/2 DKO HAP1 cells (in words),[3],not HAP1 cells lacking TPC1 or TPC2; also recorded: not TPC1/2 double KO HAP1 cells
same,activation of whole-cell ITPC2-K204A (in words),[4],activated
"CN(C)CCCN1c2ccccc2CCc2ccc(Cl)cc21 [LyNa-VA1.1, Clomipramine]",activation of whole-endolysosome ITPC in WT HAP1 cells (in words),[1],activated whole-endolysome ITPC in WT
same,whole-endolysome ITPC current,[1]; individual,252.1 pA and 207.1 pA and 321.7 pA and 271.3 pA
same,whole-endolysome ITPC current,[1]; mean,263.05 pA
same,EC50,"[2]; K204A +PI(3,5)P2 (50 nM), whole-endolysosome, Figure 3C",47 ± 5 µM
same,EC50,"[2]; K204A -PI(3,5)P2, whole-endolysosome, Figure 3C",56 ± 3 µM
same,EC50,"[2]; K204A -pip2, MEAN (Fig. 3D)",59.7 µM
same,EC50,"[2]; K204A -pip2, individual patches (Fig. 3D)",56.4 µM and 68.2 µM and 54.5 µM
same,EC50,"[2]; K204A+pip2 (50 nM), MEAN (Fig. 3D)",48.7 µM
same,EC50,"[2]; K204A+pip2 (50 nM), individual patches (Fig. 3D)",45.5 µM and 56.2 µM and 44.4 µM
same,Normalized I-TPC2,"[2]; 1 µM + PI(3,5)P2 50nM, individual patches",0.01018 and 0.1053 and 0.1347
same,Normalized I-TPC2,"[2]; 1 µM + PI(3,5)P2 50nM, mean",0.08342
same,Normalized I-TPC2,"[2]; 3 µM + PI(3,5)P2 50nM, individual patches",-0.08987 and 0.1073 and 0.2183
same,Normalized I-TPC2,"[2]; 3 µM + PI(3,5)P2 50nM, mean",0.07858
same,Normalized I-TPC2,"[2]; 10 µM + PI(3,5)P2 50nM, individual patches",-0.1017 and 0.1767 and 0.2594
same,Normalized I-TPC2,"[2]; 10 µM + PI(3,5)P2 50nM, mean",0.1115
same,Normalized I-TPC2,"[2]; 10 µM, no PI(3,5)P2, individual patches",0.02985 and 0.03877 and 0.00366
same,Normalized I-TPC2,"[2]; 10 µM, no PI(3,5)P2, mean",0.02409
same,Normalized I-TPC2,"[2]; 20 µM, no PI(3,5)P2, individual patches",0.03731 and 0.1741 and 0.01903
same,Normalized I-TPC2,"[2]; 20 µM, no PI(3,5)P2, mean",0.07682
same,Normalized I-TPC2,"[2]; 30 µM + PI(3,5)P2 50nM, individual patches",0.119 and 0.2972 and 0.3327
same,Normalized I-TPC2,"[2]; 30 µM + PI(3,5)P2 50nM, mean",0.2496
same,Normalized I-TPC2,"[2]; 50 µM, no PI(3,5)P2, individual patches",0.2736 and 0.4263 and 0.3898
same,Normalized I-TPC2,"[2]; 50 µM, no PI(3,5)P2, mean",0.3632
same,Normalized I-TPC2,"[2]; 100 µM + PI(3,5)P2 50nM, individual patches",0.8468 and 1 (2×)
same,Normalized I-TPC2,"[2]; 100 µM + PI(3,5)P2 50nM, mean",0.9489
same,Normalized I-TPC2,"[2]; 100 µM, no PI(3,5)P2, individual patches",0.8657 and 1 and 0.7921
same,Normalized I-TPC2,"[2]; 100 µM, no PI(3,5)P2, mean",0.8859
same,Normalized I-TPC2,"[2]; 200 µM + PI(3,5)P2 50nM, individual patches",1 and 0.5762 and 0.9144
same,Normalized I-TPC2,"[2]; 200 µM + PI(3,5)P2 50nM, mean",0.8302
same,Normalized I-TPC2,"[2]; 200 µM, no PI(3,5)P2, individual patches",1 (2×) and 0.8492
same,Normalized I-TPC2,"[2]; 200 µM, no PI(3,5)P2, mean",0.9497
same,activation of whole-endolysosome ITPC in TPC1/2 DKO HAP1 cells (in words),[3],not TPC1/2 DKO
same,whole-endolysome ITPC current,[3]; individual,15.3 pA and 12.5 pA and 24.7 pA and 10.4 pA
same,whole-endolysome ITPC current,[3]; mean,15.725 pA
"CNCCCN1c2ccccc2CCc2ccccc21 [LyNa-VA1.2, Desipramine]",activation of ITPC2 in inside-out patch (in words),[5]; 200 µM,evoked
same,time course of LyNa-VA1.2-induced ITPC2,[5]; time 0 s,-0.06927
same,time course of LyNa-VA1.2-induced ITPC2,[5]; time 2 s,-0.0966
same,time course of LyNa-VA1.2-induced ITPC2,[5]; time 4 s,-0.00941
same,time course of LyNa-VA1.2-induced ITPC2,[5]; time 6 s,-8.49E-04
same,time course of LyNa-VA1.2-induced ITPC2,[5]; time 8 s,-0.06407
same,time course of LyNa-VA1.2-induced ITPC2,[5]; time 10 s,-0.08365
same,time course of LyNa-VA1.2-induced ITPC2,[5]; time 12 s,-0.08538
same,time course of LyNa-VA1.2-induced ITPC2,[5]; time 14 s,-0.09864
same,time course of LyNa-VA1.2-induced ITPC2,[5]; time 16 s,-0.09741
same,time course of LyNa-VA1.2-induced ITPC2,[5]; time 18 s,-0.1284
same,time course of LyNa-VA1.2-induced ITPC2,[5]; time 20 s,-0.2599
same,time course of LyNa-VA1.2-induced ITPC2,[5]; time 22 s,-0.3874
same,time course of LyNa-VA1.2-induced ITPC2,[5]; time 24 s,-0.5101
same,time course of LyNa-VA1.2-induced ITPC2,[5]; time 26 s,-0.54
same,time course of LyNa-VA1.2-induced ITPC2,[5]; time 28 s,-0.5044
same,time course of LyNa-VA1.2-induced ITPC2,[5]; time 30 s,-0.6046
same,time course of LyNa-VA1.2-induced ITPC2,[5]; time 32 s,-0.6923
same,time course of LyNa-VA1.2-induced ITPC2,[5]; time 34 s,-0.8892
same,time course of LyNa-VA1.2-induced ITPC2,[5]; time 36 s,-0.754
same,time course of LyNa-VA1.2-induced ITPC2,[5]; time 38 s,-0.8074
same,time course of LyNa-VA1.2-induced ITPC2,[5]; time 40 s,-0.7387
same,time course of LyNa-VA1.2-induced ITPC2,[5]; time 42 s,-0.8794
same,time course of LyNa-VA1.2-induced ITPC2,[5]; time 44 s,-0.9937
same,time course of LyNa-VA1.2-induced ITPC2,[5]; time 46 s,-1
same,time course of LyNa-VA1.2-induced ITPC2,[5]; time 48 s,-0.9555
same,time course of LyNa-VA1.2-induced ITPC2,[5]; time 50 s,-0.9211
same,time course of LyNa-VA1.2-induced ITPC2,[5]; time 52 s,-0.87
same,Latency of induced ITPC2,[5]; [6],8 s and 12 s and 14 s
same,Time constant (τ) of induced ITPC2,[5]; [6],13.9 s and 16.3 s and 17.9 s and 21.3 s
same,latency of TPC2 activation,[5]; [7],12 ± 1 s
same,time constant (τ) of TPC2 activation,[5]; [7],17 ± 2 s
same,activation of whole-cell ITPC2-K204A (in words),[4],activated
